# Laboratory results reported in PubChem BioAssay (NCI).
#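 Values below derive from 48-hour exposures of cells grown in 96-well plates, with endpoints linearly interpolated between the two concentrations bracketing the appropriate inhibition level. GI50 is the concentration that inhibits growth by half. TGI: concentration producing complete growth inhibition.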
# Assays:
# Assay in all cases: NCI tumour cell line growth inhibition, 48 h
# UACC-257 melanoma = system: UACC-257 melanoma
# UACC-62 melanoma = system: UACC-62 melanoma
# HOP-62 NSCLC = system: HOP-62 NSCLC
# SR leukemia = system: SR leukemia
# OVCAR-5 ovarian = system: OVCAR-5 ovarian
# IGROV1 ovarian = system: IGROV1 ovarian
# HCT-15 colon = system: HCT-15 colon
# KM12 colon = system: KM12 colon
# HCC-2998 colon = system: HCC-2998 colon
# NCI-H226 lung = system: NCI-H226 lung
Structure (SMILES),TGI (UACC-257 melanoma) [µM],TGI (UACC-62 melanoma) [µM],TGI (HOP-62 NSCLC) [µM],TGI (SR leukemia) [µM],TGI (OVCAR-5 ovarian) [µM],TGI (IGROV1 ovarian) [µM],TGI (HCT-15 colon) [µM],TGI (KM12 colon) [µM],TGI (HCC-2998 colon) [µM],TGI (NCI-H226 lung) [µM],GI50 (UACC-257 melanoma) [µM],GI50 (UACC-62 melanoma) [µM],GI50 (HOP-62 NSCLC) [µM],GI50 (SR leukemia) [µM],GI50 (OVCAR-5 ovarian) [µM],GI50 (IGROV1 ovarian) [µM],GI50 (HCT-15 colon) [µM],GI50 (KM12 colon) [µM],GI50 (HCC-2998 colon) [µM],GI50 (NCI-H226 lung) [µM]
CSc1s[s+]c(SC)c1[O-],50.2,28.2,> 100,37,> 100,> 100,> 100,> 100,> 100,> 100,–,–,–,–,–,–,–,–,–,–
C=CCSc1n[nH]c(-c2cccs2)n1,> 100,> 100,> 100,> 100,> 100,> 100,> 100,> 100,> 100,> 100,> 100,> 100,> 100,> 100,> 100,> 100,> 100,> 100,> 100,> 100
O=C(Nc1cc(C(F)(F)F)ccc1Cl)C(=O)C(C(=O)c1ccc2ccccc2c1)C1OC(=O)c2ccccc21 (configuration not stated),26,32.9,16.1,14.9,24.5,> 92.5,30.1,27.4,22.7,3.36,–,–,–,–,–,–,–,–,–,–
C=CC1=C(C)C2=NC1=CC1=NC(=C(CC)/C1=C/O)C=C1C=C3C(=O)C(C(=O)OC)C(=C4NC(=C2)C(C)C4CCC(=O)OC/C=C(\C)CCCC(C)CCCC(C)CCCC(C)C)C3=N1 (configuration not stated) (tested in a mixture with another compound),> 100,> 100,> 100,> 100,> 100,> 100,> 100,> 100,> 100,> 100,–,–,–,–,–,–,–,–,–,–
c1ccc(-c2cc(-c3cc(-c4ccccn4)[nH]n3)n[nH]2)nc1,> 100,> 100,> 100,80.6,> 100,> 100,> 100,> 100,83.6,> 100,–,–,–,–,–,–,–,–,–,–
CN(C)CCCC1(c2ccc(F)cc2)OCc2cc(-c3ccc4cc[nH]c4c3)ccc21 (configuration not stated),3.91,3.77,3.71,5.41,4.3,3.61,3.14,3.42,3.48,29.3,1.96,1.85,1.71,2.41,1.95,1.73,1.7,1.85,1.84,10.7
C[C@]12CC[C@@H]3c4ccc(O)cc4CC[C@H]3[C@@H]1CC[C@@H]2NS(=O)(=O)c1cccc(Br)c1,20,12.9,22.5,7.63,16.3,16.5,11.1,6.76,15.9,15.6,5.1,3.19,10.4,2.37,4.09,4.04,2.77,2.31,4.31,3.19
CN/N=C(\C)CC(=O)Nc1cccc(Cl)c1C,> 100,> 100,> 100,53.5,> 100,> 100,> 100,> 100,> 100,> 100,–,–,–,–,–,–,–,–,–,–
O=C(c1cccs1)c1c(C(F)(F)F)n([O-])c2cc(F)c(F)cc2[n+]1=O,6.79,3.58,6.21,0.48,5.58,3.92,2.25,8.73,9.07,7.47,3.11,1.54,3.77,0.096,3.57,1.86,0.851,4.95,6.65,3.62
O=C1c2cccc3c(N4CCN(c5ccc6c7c(cccc57)C(=O)N(CCN5CCNCC5)C6=O)CC4)ccc(c23)C(=O)N1CCN1CCNCC1,37.9,30.2,27.7,8.66,34.1,29.4,31.3,30.5,20.9,29,19.5,15,7.96,2.64,15.1,6.32,11.3,12,5.63,12.4
Cc1ccc(NC(=O)SCCC(=O)O)cc1NC(=O)SCCC(=O)O,> 100,–,> 100,> 100,> 100,> 100,> 100,> 100,> 100,> 100,–,–,–,–,–,–,–,–,–,–
CC1CC(=O)C(C(O)CC2CC(=O)N(c3ccccc3)C(=O)C2)C(C)C1 (configuration not stated),> 100,> 100,> 100,> 100,> 100,> 100,–,> 100,> 100,> 100,–,–,–,–,–,–,–,–,–,–
O=C(O)/C(O)=C1/C=C(c2ccccc2)c2ccccc21,48.1,30,55.2,47.1,72.2,51.8,50.6,32.4,49.8,59.6,–,–,–,–,–,–,–,–,–,–
N#CC1=C(N)Oc2c(sc3c(F)cccc23)C1c1ccc([N+](=O)[O-])cc1 (configuration not stated),2.9,1.33,1.79,7.42,2.26,1.56,1.41,1.27,1.46,1.93,0.863,0.0863,0.228,0.0478,0.552,0.152,0.0682,0.141,0.307,0.376
Cc1ccccc1NC(=O)C(=O)Cc1nc2ccccc2s1,> 100,–,> 100,> 100,> 100,> 100,> 100,> 100,> 100,> 100,–,–,–,–,–,–,–,–,–,–
Cc1cc(N2CCN(C)CC2)nc(NC2CCCC(Nc3ccnc4cc(Cl)ccc34)C2)n1 (configuration not stated),3.93,3.54,6.03,5.23,9.88,7.85,3.1,10.1,7.4,10.3,2.1,1.8,2.22,0.643,2.88,2.24,0.973,2.89,1.97,3.01
